# Results reported in the supplement of paper PMC10307832.
# How the values were obtained:
# Experiment in all cases: relative viability (nuclei count vs DMSO), 5 days (fraction); higher = more cells survive
# Afatinib + Crizotinib = compound: CN(C)C/C=C/C(=O)Nc1cc2c(Nc3ccc(F)c(Cl)c3)ncnc2cc1O[C@H]1CCOC1 [Afatinib] + C[C@@H](Oc1cc(-c2cnn(C3CCNCC3)c2)cnc1N)c1c(Cl)ccc(F)c1Cl [Crizotinib] (partner 1 µM)
# Outline: (§1)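 The day after seeding in 1536-well plates, lung cancer cell lines were treated by pin tool with a single drug, or with a fixed anchor-drug dose together with five library-drug doses (not always all listed) in √10 steps. After 5 days, a combined fix-and-stain solution (final 0.05% Triton X-100, 1% formaldehyde, 1 ug/ml Hoechst) was added. Nuclei counted on 4× images gave relative viability as treated counts over vehicle counts, reported as the median of duplicate plates.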
# Afatinib + Dasatinib = compound: CN(C)C/C=C/C(=O)Nc1cc2c(Nc3ccc(F)c(Cl)c3)ncnc2cc1O[C@H]1CCOC1 [Afatinib] + Cc1nc(Nc2ncc(C(=O)Nc3c(C)cccc3Cl)s2)cc(N2CCN(CCO)CC2)n1 [Dasatinib] (partner 0.075 µM)
# Outline: as §1
# Afatinib + Vorinostat = compound: CN(C)C/C=C/C(=O)Nc1cc2c(Nc3ccc(F)c(Cl)c3)ncnc2cc1O[C@H]1CCOC1 [Afatinib] + O=C(CCCCCCC(=O)Nc1ccccc1)NO [Vorinostat] (partner 1 µM)
# Outline: as §1
# Afatinib + Pictilisib = compound: CN(C)C/C=C/C(=O)Nc1cc2c(Nc3ccc(F)c(Cl)c3)ncnc2cc1O[C@H]1CCOC1 [Afatinib] + CS(=O)(=O)N1CCN(Cc2cc3nc(-c4cccc5[nH]ncc45)nc(N4CCOCC4)c3s2)CC1 [Pictilisib] (partner 1 µM)
# Outline: as §1
Cell Line,relative viability (Afatinib + Crizotinib; first compound 0.005 µM),relative viability (Afatinib + Crizotinib; first compound 0.01581 µM),relative viability (Afatinib + Crizotinib; first compound 0.05 µM),relative viability (Afatinib + Crizotinib; first compound 0.1581 µM),relative viability (Afatinib + Crizotinib; first compound 0.5 µM),relative viability (Afatinib + Dasatinib; first compound 0.005 µM),relative viability (Afatinib + Dasatinib; first compound 0.01581 µM),relative viability (Afatinib + Dasatinib; first compound 0.05 µM),relative viability (Afatinib + Dasatinib; first compound 0.1581 µM),relative viability (Afatinib + Dasatinib; first compound 0.5 µM),relative viability (Afatinib + Vorinostat; first compound 0.005 µM),relative viability (Afatinib + Vorinostat; first compound 0.01581 µM),relative viability (Afatinib + Vorinostat; first compound 0.05 µM),relative viability (Afatinib + Vorinostat; first compound 0.1581 µM),relative viability (Afatinib + Vorinostat; first compound 0.5 µM),relative viability (Afatinib + Pictilisib; first compound 0.005 µM),relative viability (Afatinib + Pictilisib; first compound 0.01581 µM),relative viability (Afatinib + Pictilisib; first compound 0.05 µM),relative viability (Afatinib + Pictilisib; first compound 0.1581 µM),relative viability (Afatinib + Pictilisib; first compound 0.5 µM)
NCI-H2405,0.753,0.86,0.835,0.811,0.819,0.243,0.201,0.207,0.219,0.196,1.2,0.848,0.976,0.953,0.938,0.445,0.47,0.611,0.473,0.57
NCI-H3122,0.257,0.212,0.208,0.209,0.299,0.95,0.778,0.675,0.739,0.553,1.1,1,1.06,0.956,0.944,0.558,0.628,0.663,0.557,0.621
PC-3 [JPC-3],0.51,0.453,0.447,0.4,0.355,0.46,0.339,0.286,0.25,0.33,0.531,0.339,0.287,0.326,0.328,0.429,0.323,0.339,0.3,0.355
PC-14,0.419,0.275,0.257,0.239,0.242,0.0312,0.0316,0.0366,0.0312,0.0453,0.112,0.0624,0.108,0.0886,0.124,0.109,0.0863,0.108,0.0958,0.0837
RERF-LC-KJ,0.921,0.842,0.801,0.731,0.705,0.663,0.662,0.736,0.61,0.616,0.713,0.636,0.544,0.574,0.519,0.543,0.507,0.414,0.35,0.392
SK-LU-1,1.07,0.731,0.879,1.12,0.842,0.179,0.203,0.211,0.175,0.222,0.727,0.806,0.767,0.771,0.738,0.713,0.537,0.561,0.564,0.531
SK-MES-1,0.977,0.879,0.626,0.485,0.466,0.247,0.203,0.18,0.139,0.16,0.542,0.816,0.509,0.54,0.506,0.273,0.238,0.217,0.213,0.208
SW 1573,0.963,0.885,1.01,0.683,0.75,0.355,0.438,0.528,0.475,0.417,0.696,0.682,1.01,0.692,0.777,0.547,0.406,0.585,0.484,0.484
UMC-11,0.679,0.558,0.557,0.629,0.71,0.657,0.439,0.436,0.419,0.419,0.378,0.361,0.347,0.416,0.364,0.981,0.841,0.787,0.725,0.84
